Like-named read-outs stand apart in the source and are kept apart here. No end group written: not given here.
Assays:
[1] = Clotting time as a function of peptide concentration (FIG. 12); conditions: peptide 500 nM
Excerpt: FIG. 12 is a graph illustrating clotting time as a function of concentration of various peptides of interest as follows: DYDYQ (SEQ ID NO. 11) (filled squares); DYDYQ (1, 2) (or as designated in shorthand form, D5Q1,2) (SEQ ID NO. 9) (filled triangles); DYDYQ-1 (SEQ ID NO. 7) (filled inverted triangles); and DYDYQ-2 (SEQ ID NO. 8) (filled diamonds).

prothrombin = target: T1, prothrombin (Homo sapiens, UniProt P00734); assay: KD of peptide for prothrombin, from kinetics of prothrombinase inhibition; format: biochemical
T1 construct: purchased Haematologic Technologies Inc. (Essex Junction, Vt.)
Excerpt: The mechanism of inhibition of prothrombinase by the hirudin-like peptides HC3 and HC4 was addressed by investigating the effect of the peptides on the kinetic parameters of the enzymatic complex (Km and Vmax). For the sake of simplicity only the results obtained with HC4 are shown (FIG. 2C). In FIG. 2C, the data are plotted as V0 (initial velocity, in arbitrary units) as a function of increasing prothrombin concentration in the presence of increasing concentrations of HC4. The lines drawn represent the best fit through the points with an R^2 of 0.99. The concentrations of HC4 used in the experiments are as follows: control no peptide (filled squares), 0.5 μM peptide (filled circles), 1 μM peptide (filled inverted triangles), 1.5 μM peptide (filled diamonds), and 2 μM peptide (filled triangles). […]
In FIG. 3B, the data are plotted as V0 (initial velocity, in arbitrary units) as a function of increasing prothrombin concentration in the presence of increasing concentrations of peptide DYDYQ. […] The kinetic constants calculated from the data presented in this graph were used to calculate the kcat reported in FIG. 7 assuming a final concentration of 4 nM prothrombinase. […]

thrombin = thrombin (Homo sapiens, UniProt P00734); assay: Activation of plasma factor V by thrombin preincubated with peptide (SDS-PAGE, immunoblotting); format: biochemical; design: Factor Xa cleaves prothrombin to form thrombin; purchased Haematologic Technologies Inc. (Essex Junction, Vt.); conditions: thrombin 1 nM preincubated with 100 μM peptide, factor V 250 nM
Description: Gel Electrophoresis and western blotting. Sodium dodecyl sulfate polyacrylamide gel electrophoresis (SDS-PAGE) analyses were performed using 4-12% gradient gels according to the method of Laemmli. In several experiments, proteins were transferred to polyvinylidene difluoride (PVDF) membranes according to the method described by Towbin et al. After transfer to nitrocellulose, factor V heavy and light chain(s) were detected using the appropriate monoclonal and polyclonal antibodies. Immunoreactive fragments were visualized with chemiluminescence.
Factor V (250 nM) was incubated with thrombin (1 nM). And FIG. 4B illustrates thrombin (1 nM) was preincubated with 100 μM peptide DYDYQ and the mixture was added to factor V (250 nM). […] Fragments were identified following staining with monoclonal antibody αHFV#17 that recognizes an epitope between amino acid residues 307-506 of factor V and chemiluminescence as described. Lane 1 in both panels depicts aliquots of the mixture withdrawn from the reaction before the addition of thrombin or thrombin/peptide mixture while lanes 2-7 show aliquots of the reaction mixture withdrawn at 30 sec, 1 min, 3 min, 5 min, 10 min, 15 min following the addition of thrombin alone or of thrombin/peptide mixture. The time of incubation is shown at the bottom of the figure. Position of the molecular weight markers is indicated at left.

Question: What does the source list for DYDYQ [DYDYQ, Asp-Tyr-Asp-Tyr-Gln]?
Answer: clotting time [1]: relatively long clotting times; Kd (prothrombin; from Ki of prothrombinase inhibition, read-out: KD for prothrombin): 850 nM; Kd (prothrombin; kinetic model FIG. 7, read-out: KD of inhibitor interaction with prothrombin): ~850 nM; inhibition of activation of factor V by thrombin (cleavage at Arg709) (thrombin): inhibited; inhibition of activation of factor V by thrombin (cleavage at Arg709) (thrombin; listed as pentapeptide): potent inhibitor
